Laboratory results published in PubChem BioAssay (NCI).
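1) Cells in 96-well plates. 2) Compound, 48 h, 5 concentrations. 3) Linear interpolation between surrounding doses. 4) Unreached endpoint = highest concentration. GI50 = concentration required for 50% inhibition of growth. TGI marks complete inhibition of growth.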

What was measured:
Assay in all cases: NCI anticancer screen, dose series, 48 h
786-0 renal = system: 786-0 renal
A498 renal = system: A498 renal
A549 NSCLC = system: A549 NSCLC
ACHN renal = system: ACHN renal
BT-549 breast = system: BT-549 breast
CAKI-1 renal = system: CAKI-1 renal
CCRF-CEM leukemia = system: CCRF-CEM leukemia
COLO 205 colon = system: COLO 205 colon
DU-145 prostate = system: DU-145 prostate
EKVX NSCLC = system: EKVX NSCLC
HCC-2998 colon = system: HCC-2998 colon
HCT-116 colon = system: HCT-116 colon
HCT-15 colon = system: HCT-15 colon
HL-60(TB) leukemia = system: HL-60(TB) leukemia
HOP-62 NSCLC = system: HOP-62 NSCLC
HOP-92 NSCLC = system: HOP-92 NSCLC
HS 578T breast = system: HS 578T breast
HT29 colon = system: HT29 colon
IGROV1 ovarian = system: IGROV1 ovarian
KM12 colon = system: KM12 colon
LOX IMVI melanoma = system: LOX IMVI melanoma
M14 melanoma = system: M14 melanoma
MALME-3M melanoma = system: MALME-3M melanoma
MCF7 breast = system: MCF7 breast
MDA-MB-231 breast = system: MDA-MB-231 breast
MDA-MB-435 = system: MDA-MB-435
NCI-H226 lung = system: NCI-H226 lung
NCI-H23 lung = system: NCI-H23 lung
NCI-H460 lung = system: NCI-H460 lung
NCI-H522 lung = system: NCI-H522 lung
NCI/ADR-RES ovarian = system: NCI/ADR-RES ovarian
OVCAR-3 ovarian = system: OVCAR-3 ovarian
OVCAR-4 ovarian = system: OVCAR-4 ovarian
OVCAR-5 ovarian = system: OVCAR-5 ovarian
OVCAR-8 ovarian = system: OVCAR-8 ovarian
PC-3 prostate = system: PC-3 prostate
RPMI-8226 leukemia = system: RPMI-8226 leukemia
RXF 393 renal = system: RXF 393 renal
SF-268 CNS = system: SF-268 CNS
SF-295 CNS = system: SF-295 CNS
SF-539 CNS = system: SF-539 CNS
SK-MEL-2 melanoma = system: SK-MEL-2 melanoma
SK-MEL-28 melanoma = system: SK-MEL-28 melanoma
SK-MEL-5 melanoma = system: SK-MEL-5 melanoma
SK-OV-3 ovarian = system: SK-OV-3 ovarian
SN12C renal = system: SN12C renal
SNB-19 CNS = system: SNB-19 CNS
SNB-75 CNS = system: SNB-75 CNS
SW-620 colon = system: SW-620 colon
T-47D breast = system: T-47D breast
TK-10 renal = system: TK-10 renal
U251 CNS = system: U251 CNS
UACC-257 melanoma = system: UACC-257 melanoma
UACC-62 melanoma = system: UACC-62 melanoma
UO-31 renal = system: UO-31 renal

In the case of `Cc1cccc2c(C(=O)O[C@H](C(N)=O)[C@]3(C)CO3)cccc12`, the GI50 (786-0 renal) is reported as 1.4 µM, the TGI (786-0 renal) is reported as 8.21 µM and the GI50 (A498 renal) is reported as 13.3 µM. The TGI (A498 renal) was 41.2 µM, the GI50 (A549 NSCLC) was 3.66 µM and the TGI (A549 NSCLC) was > 100 µM. The GI50 (ACHN renal) was 0.302 µM, the TGI (ACHN renal) was 2.67 µM and the GI50 (BT-549 breast) was 1.95 µM. For the same molecule, the TGI (BT-549 breast) was 6.07 µM, the GI50 (CAKI-1 renal) was 1.33 µM and the TGI (CAKI-1 renal) was 11.6 µM. The GI50 (CCRF-CEM leukemia) was 0.599 µM, the GI50 (COLO 205 colon) was 2.37 µM and the TGI (COLO 205 colon) was 13.4 µM. For the same molecule, the GI50 (DU-145 prostate) was 1.17 µM, the TGI (DU-145 prostate) was 5.89 µM and the GI50 (EKVX NSCLC) was 3.93 µM. It also gave a TGI (EKVX NSCLC) of 13.5 µM, a GI50 (HCC-2998 colon) of 1.24 µM and a TGI (HCC-2998 colon) of 3.33 µM. It also gave a GI50 (HCT-116 colon) of 0.135 µM, a TGI (HCT-116 colon) of 5.51 µM and a GI50 (HCT-15 colon) of 1.69 µM. For the same molecule, the TGI (HCT-15 colon) was 7.7 µM, the GI50 (HL-60(TB) leukemia) was > 100 µM and the TGI (HL-60(TB) leukemia) was > 100 µM. It also gave a GI50 (HOP-62 NSCLC) of 1.12 µM, a TGI (HOP-62 NSCLC) of 4.66 µM and a GI50 (HOP-92 NSCLC) of 2.28 µM. The TGI (HOP-92 NSCLC) was 11.4 µM, the GI50 (HS 578T breast) was 3.52 µM and the TGI (HS 578T breast) was > 26.8 µM. The GI50 (HT29 colon) was 0.693 µM, the GI50 (IGROV1 ovarian) was 0.817 µM and the TGI (IGROV1 ovarian) was > 22.4 µM. For the same molecule, the GI50 (KM12 colon) was 6.65 µM, the TGI (KM12 colon) was 42.9 µM and the GI50 (LOX IMVI melanoma) was 0.0926 µM. For the same molecule, the TGI (LOX IMVI melanoma) was 1.78 µM, the GI50 (M14 melanoma) was 0.938 µM and the TGI (M14 melanoma) was 2.88 µM. The GI50 (MALME-3M melanoma) was 3.97 µM, the TGI (MALME-3M melanoma) was 10.6 µM and the GI50 (MCF7 breast) was 0.342 µM. For the same molecule, the TGI (MCF7 breast) was > 100 µM, the GI50 (MDA-MB-231 breast) was 1.99 µM and the TGI (MDA-MB-231 breast) was 6.57 µM. For the same molecule, the GI50 (MDA-MB-435) was 4.75 µM, the TGI (MDA-MB-435) was 26.8 µM and the GI50 (NCI-H226 lung) was 0.556 µM. For the same molecule, the TGI (NCI-H226 lung) was 2.21 µM, the GI50 (NCI-H23 lung) was 1.13 µM and the TGI (NCI-H23 lung) was 3.11 µM. The GI50 (NCI-H460 lung) was 4.31 µM, the TGI (NCI-H460 lung) was > 41.5 µM and the GI50 (NCI-H522 lung) was 1.39 µM. The TGI (NCI-H522 lung) was 7.82 µM, the GI50 (NCI/ADR-RES ovarian) was 0.904 µM and the TGI (NCI/ADR-RES ovarian) was 6.34 µM. The GI50 (OVCAR-3 ovarian) was 2.07 µM, the TGI (OVCAR-3 ovarian) was 13.3 µM and the GI50 (OVCAR-4 ovarian) was 3.39 µM. The TGI (OVCAR-4 ovarian) was > 55.9 µM, the GI50 (OVCAR-5 ovarian) was 3.12 µM and the TGI (OVCAR-5 ovarian) was > 34.4 µM. For the same molecule, the GI50 (OVCAR-8 ovarian) was 0.465 µM, the TGI (OVCAR-8 ovarian) was 26.8 µM and the GI50 (PC-3 prostate) was 1.83 µM. For the same molecule, the TGI (PC-3 prostate) was > 22.5 µM, the GI50 (RPMI-8226 leukemia) was 1.71 µM and the GI50 (RXF 393 renal) was 3.76 µM. The TGI (RXF 393 renal) was > 100 µM, the GI50 (SF-268 CNS) was 2.3 µM and the TGI (SF-268 CNS) was > 100 µM. The GI50 (SF-295 CNS) was 2.11 µM, the TGI (SF-295 CNS) was 19.2 µM and the GI50 (SF-539 CNS) was 0.496 µM. For the same molecule, the TGI (SF-539 CNS) was 1.57 µM, the GI50 (SK-MEL-2 melanoma) was 1.72 µM and the TGI (SK-MEL-2 melanoma) was 8.96 µM. The GI50 (SK-MEL-28 melanoma) was 1.91 µM, the TGI (SK-MEL-28 melanoma) was 5.49 µM and the GI50 (SK-MEL-5 melanoma) was 1.23 µM. The TGI (SK-MEL-5 melanoma) was 3.04 µM, the GI50 (SK-OV-3 ovarian) was 7.48 µM and the TGI (SK-OV-3 ovarian) was 24.4 µM. The GI50 (SN12C renal) was 0.271 µM, the TGI (SN12C renal) was 2.58 µM and the GI50 (SNB-19 CNS) was 5.23 µM. For the same molecule, the TGI (SNB-19 CNS) was > 61.7 µM, the GI50 (SNB-75 CNS) was 2.81 µM and the TGI (SNB-75 CNS) was 13.1 µM. For the same molecule, the GI50 (SW-620 colon) was 0.351 µM, the TGI (SW-620 colon) was > 79.9 µM and the GI50 (T-47D breast) was 2.75 µM. It also gave a TGI (T-47D breast) of 15.9 µM, a GI50 (TK-10 renal) of 6.02 µM and a TGI (TK-10 renal) of 33.3 µM. For the same molecule, the GI50 (U251 CNS) was 0.69 µM, the TGI (U251 CNS) was 8.07 µM and the GI50 (UACC-257 melanoma) was 4.38 µM. For the same molecule, the TGI (UACC-257 melanoma) was > 41.8 µM, the GI50 (UACC-62 melanoma) was 0.481 µM and the TGI (UACC-62 melanoma) was 1.75 µM. It also gave a GI50 (UO-31 renal) of 1.49 µM and a TGI (UO-31 renal) of 7.15 µM.
